Results published in US20240122929A1, “BODY TEMPERATURE LOWERING AGENT, BODY TEMPERATURE ELEVATION SUPPRESSOR, FOOD COMPOSITION FOR LOWERING BODY TEMPERATURE,AND FOOD COMPOSITION FOR SUPPRESSING BODY TEMPERATURE ELEVATION” (University of Tsukuba, priority 2021, published 2024).

Assays:
male Wistar rat [1] = test: Effect of orotic acid on core body temperature at rest (telemetry, breath gas analysis, spontaneous activity); assay type: in vivo
Source text: The body temperature lowering action of the body temperature lowering agent according to the embodiment of the present invention can be measured by a method for measuring the core body temperature at rest. The core body temperature at rest can be measured in accordance with a known method, for example, the method described in an article of Takahashi et al. (Nature 583: 109-114, 2020) and the like. Specifically, the measurement can be performed in the following manner. The core body temperature at rest is measured using a TRM54P Rat Telemetry System (available from KAHA Sciences) and SmartPad (TR181: available from KAHA Sciences) and quantified. The main body of TRM54P Rat Telemetry System is indwelled in the abdominal cavity of a test animal for measurement. All experiments are performed in the light phase, and on the day of the experiments, a rat is fasted 2 hours before start of the test to eliminate the effect of food-induced heat production. After the core body temperature at rest is measured for 20 minutes, a drug (orotic acids) or vehicle is intraperitoneally administered, and the core body temperature is measured for 120 minutes. In a case where the core body temperature at rest is lowered as compared with a case where orotic acids are not administered, it can be determined that the orotic acids have a body temperature lowering action. A 10-week-old male Wistar rat was used, and a one-week preliminary breeding period was provided before the day of an experiment. During the experiment, room temperature was maintained at 22±2° C. After the preliminary breeding, a telemetry (TRM54P, available from KAHA Sciences) for measuring the body temperature was indwelled in the abdominal cavity, and a recovery period and an acclimation period were provided for one week each. 300 mg/kg orotic acid, 30 mg/kg orotic acid, or a vehicle (1% carboxymethyl cellulose) was intraperitoneally administered to examine the effect on the core body temperature at rest. In addition to the core body temperature and a heart rate, an oxygen/carbon dioxide intake was measured using a breath gas analyzer (trade name: Oxymax, available from Columbus Instruments) to calculate a respiratory exchange ratio (also referred to as RER) and an amount of heat production. In addition, the amount of spontaneous activity was measured using an infrared beam sensor (trade name: beam sensor type spontaneous activity amount measuring device, available from Panlab). Note that in the experiment, the rat was placed under fasting for 2 hours before the start of the experiment, and the core body temperature at rest was measured for 20 minutes. Thereafter, the orotic acid or vehicle was intraperitoneally administered, and the measurement was performed until 2 hours later. The orotic acid was used in a free form.

male Wistar rat [2] = test: Effect of orotic acid on core body temperature during treadmill exercise; assay type: in vivo; conditions: treadmill 20 m/min for 30 minutes
Source text: The body temperature elevation suppressing action of the body temperature elevation suppressor according to the embodiment of the present invention can be measured by a method for measuring the core body temperature during exercise. The core body temperature during exercise can be measured in accordance with a known method, for example, a method described in the article by Takahashi et al. (Nature 583: 109-114, 2020) and the like. Specifically, the measurement can be performed in the following manner. A rat is placed in a treadmill metabolism chamber for small animals having an inclination of 10°, and after measuring the core body temperature at rest for 20 minutes, a single dose of a drug (orotic acids) is administered intraperitoneally. After the administration, the rat is left in a rest state for 15 minutes, and then exercise is started. The exercise is started at a running speed of 5 m/min, the running speed is increased to 20 m/min over 5 minutes, and the core body temperature is measured in the same manner as the method for measuring the core body temperature at rest. In a case where the core body temperature elevation during exercise is suppressed as compared with a case where the orotic acids are not administered, it can be determined that the orotic acids have the body temperature elevation suppressing action. A 10-week-old male Wistar rat was used, and a one-week preliminary breeding period was provided before the day of an experiment. During the experiment, room temperature was maintained at 22±2° C. After the preliminary breeding, a telemetry (trade name: TRM54P, available from KAHA Sciences) for measuring the body temperature was indwelled in the abdominal cavity, and a running test was performed after a recovery period of one week. Note that in the experiment, after 300 mg/kg orotic acid or a vehicle (physiological saline) was intraperitoneally administered in a rest state, treadmill exercise (20 m/min) was performed for 30 minutes, and the measurement was performed until 1 hour after the end of the exercise. The measurement items were core body temperature, a blood pressure, a heart rate, and breath gas metabolism. From the obtained oxygen/carbon dioxide intake, exercise economy was calculated. The orotic acid was used in a free form.

rat = conditions: orotic acid administered to a rat, Non-Patent Document 2; cited from earlier work

O=C(O)c1cc(=O)[nH]c(=O)[nH]1 [orotic acid]
amount of spontaneous activity at rest (male Wistar rat [1]; 30 mg/kg and 300 mg/kg intraperitoneal vs vehicle, infrared beam sensor, FIG. 4): no difference between the groups | core body temperature at rest, dose dependence (male Wistar rat [1]; 30 mg/kg and 300 mg/kg intraperitoneal, FIG. 1): decreased in a concentration dependent manner | heart rate at rest (male Wistar rat [1]; 30 mg/kg and 300 mg/kg intraperitoneal, FIG. 2): did not fluctuate | core body temperature at rest (male Wistar rat [1]; 300 mg/kg intraperitoneal, vs vehicle (1% carboxymethyl cellulose), measured until 2 hours after administration, FIG. 1): significantly decreased | amount of heat production at rest (male Wistar rat [1]; 300 mg/kg intraperitoneal, vs vehicle, breath gas analyzer, FIG. 3): significantly decreased | contraction phase, diastole phase and mean blood pressure at rest (male Wistar rat [1]; orotic acid administered groups (30 and 300 mg/kg intraperitoneal), data not shown): significantly increased | exercise economy (male Wistar rat [2]; 300 mg/kg intraperitoneal vs vehicle (physiological saline), FIG. 8): increased | excessive core body temperature elevation during exercise (male Wistar rat [2]; 300 mg/kg intraperitoneal vs vehicle, FIG. 5): suppressed | heart rate during exercise (male Wistar rat [2]; 300 mg/kg intraperitoneal vs vehicle, FIG. 6): significantly decreased | amount of heat production during exercise (male Wistar rat [2]; 300 mg/kg intraperitoneal vs vehicle, FIG. 7): lowered | body temperature (rat): not lowered
